Measured values taken from patent US5536732A, “N-derivatives of 1-deoxy nojirimycin” (Merrell Pharmaceuticals Inc., priority 1990, dated 1996).

Columns and labels:
[1] = tested on: HIV-1GB8; test: Inhibition of syncytia formation in JM cells infected with HIV-1GB8 (3 days incubation, 37° C.); assay type: cell-based; set-up: unit not given here; conditions: HIV-1GB8, 3 days at 37° C.
From the text: (§1) Inhibition of the maturation of envelope glycoproteins gp 160 and gp 120 in human HIV by α-glucosidase I inhibitors result in reductions in infectivity and syncytial formation of the HIV virus. AIDS, Vol. 5(6): 693-698 (1991). Therefore, in order to test the antiviral activity of the compounds of the present invention, the following protocol was followed.
(§2) JM cells were infected with HIV-1GB8 for one hour at room temperature. The cells were then washed and subsequently grown in the presence of varying concentrations of test compound or no compound (control). […] The cell-free supernatant fluid was then titrated for levels of infectivity.
ED50 means 50% effective dose corresponds to the concentration of inhibitor required to lower the syncytia counts by 50%.

[2] = tested on: HIV-1GB8; test: Infectivity titration of cell-free supernatant from HIV-1GB8 infected JM cells; assay type: cell-based
From the text: as §1, §2
Infectivity is expressed as log10 determined by the highest dilution of cell-free medium at which syncytia was detected. The results in Table 1 were found.

[3] = Human immunodeficiency virus 1, 72 h, Conc 0.06 mM, read-out: % Control
[4] = Human immunodeficiency virus 1, 72 h, Conc 0.125 mM, read-out: % Control
[5] = Conc 0.5 mM, control 10^3 (Example 44) or 10^4 (Example 43)
[6] = Human immunodeficiency virus 1, 72 h, Conc 0.5 mM, read-out: % Control

## C[Si](C)(C)/C=C\CN1C[C@H](O)[C@@H](O)[C@H](O)[C@H]1CO [Example 54, 1,5-dideoxy-1,5-{[(Z)-3-(trimethylsilyl)-2-propenyl]imino}-D-glucitol]
[1]
  ED50 (concentration required to lower the syncytia counts by 50%): 310

## CC(C)(C)[Si](C)(C)/C=C/CN1C[C@H](O)[C@@H](O)[C@H](O)[C@H]1CO [Example 55, 1,5-Dideoxy-1,5-{[(E)-3-(t-butyldimethylsilyl)-2-propenyl]imino}-D-glucitol]
[1]
  ED50 (concentration required to lower the syncytia counts by 50%): 45

## C[Si](C)(C)CCCCN1C[C@H](O)[C@@H](O)[C@H](O)[C@H]1CO [Example 36, 1,5-dideoxy-1,5-{[4-(trimethylsilyl)butyl]imino}-D-glucitol]
[2]; Conc 0.06 mM, control 10^4
  Infectivity (highest dilution of cell-free medium at which syncytia was detected): 10^3
[2]; Conc 0.125 mM, control 10^4
  Infectivity (highest dilution of cell-free medium at which syncytia was detected): 10^3
[2]; [3]
  activity at 60 µM: 73%
[2]; [4]
  activity at 125 µM: 37%

## C[Si](C)(C)CCCN1C[C@H](O)[C@@H](O)[C@H](O)[C@H]1CO [Example 44, 1,5-Dideoxy-1,5-{[3-(trimethylsilyl)propyl]imino}-D-glucitol]
[2]; [5]
  Infectivity (highest dilution of cell-free medium at which syncytia was detected): 10^1
[2]; [6]
  activity at 500 µM: 0%

## C[Si](C)(C)CCCCCN1C[C@H](O)[C@@H](O)[C@H](O)[C@H]1CO [Example 49, 1,5-dideoxy-1,5-{[5-(trimethylsilyl)pentyl]imino}-D-glucitol]
[2]; Conc 0.006 mM, control 10^3
  Infectivity (highest dilution of cell-free medium at which syncytia was detected): 10^2
[2]; Conc 0.012 mM, control 10^3
  Infectivity (highest dilution of cell-free medium at which syncytia was detected): 10^1
[2]; Human immunodeficiency virus 1, 72 h, Conc 0.006 mM, read-out: % Control
  activity at 6 µM: 63%
[2]; Human immunodeficiency virus 1, 72 h, Conc 0.012 mM, read-out: % Control
  activity at 12 µM: 24%

## C[Si](C)(C)c1cccc(CN2C[C@H](O)[C@@H](O)[C@H](O)[C@H]2CO)c1 [Example 43, 1,5-Dideoxy-1,5-[{[3-(Trimethylsilyl)Phenyl]Methyl}Imino]-D-Glucitol]
[1]
  ED50 (concentration required to lower the syncytia counts by 50%): > 250
[2]; Conc 0.25 mM, control 10^4
  Infectivity (highest dilution of cell-free medium at which syncytia was detected): 10^4
[2]; [5]
  Infectivity (highest dilution of cell-free medium at which syncytia was detected): 10^4
[2]; Human immunodeficiency virus 1, 72 h, Conc 0.25 mM, read-out: % Control
  activity at 250 µM: 100%
[2]; [6]
  activity at 500 µM: 100%

## C[Si](C)(C)/C=C/CN1C[C@H](O)[C@@H](O)[C@H](O)[C@H]1CO [Example 40, 1,5-dideoxy-1,5-{[(E)-3-(trimethylsilyl)-2-propenyl]imino}-D-glucitol]
[1]
  ED50 (concentration required to lower the syncytia counts by 50%): 20
[2]; Conc 0.06 mM, control 10^4
  Infectivity (highest dilution of cell-free medium at which syncytia was detected): 10^3
[2]; Conc 0.125 mM, control 10^4
  Infectivity (highest dilution of cell-free medium at which syncytia was detected): 10^2
[2]; [3]
  activity at 60 µM: 79%
[2]; [4]
  activity at 125 µM: 23%

## C[Si](C)(C)CN1C[C@H](O)[C@@H](O)[C@H](O)[C@H]1CO [Example 32, 1,5-dideoxy-1,5-{[(trimethylsilyl)methyl]imino}-D-glucitol]
[1]
  ED50 (concentration required to lower the syncytia counts by 50%): 540

## CC[Si](C)(C)CN1C[C@H](O)[C@@H](O)[C@H](O)[C@H]1CO [Example 60, 1,5-Dideoxy-1,5-{[(Ethyldimethylsilyl)-Methyl]Imino}-D-Glucitol]
[1]
  ED50 (concentration required to lower the syncytia counts by 50%): 18

## C[Si](C)(C)CCCCCCN1C[C@H](O)[C@@H](O)[C@H](O)[C@H]1CO [Example 52, 1,5-Dideoxy-1,5-{[6-(Trimethylsilyl)Hexyl]Imino}-D-Glucitol]
[1]
  ED50 (concentration required to lower the syncytia counts by 50%): 33

## C[Si](C)(C)c1ccc(CN2C[C@H](O)[C@@H](O)[C@H](O)[C@H]2CO)cc1 [Example 46, 1,5-dideoxy-1,5-[{[4-(trimethylsilyl)phenyl]methyl}imino]-D-glucitol]
[1]
  ED50 (concentration required to lower the syncytia counts by 50%): 10
[2]; Conc 0.06 mM, control 10^4
  Infectivity (highest dilution of cell-free medium at which syncytia was detected): 10^3
[2]; Conc 0.125 mM, control 10^4
  Infectivity (highest dilution of cell-free medium at which syncytia was detected): 10^2
[2]; [3]
  activity at 60 µM: 55%
[2]; [4]
  activity at 125 µM: 28%

## C[Si](C)(CCCCN1C[C@H](O)[C@@H](O)[C@H](O)[C@H]1CO)c1ccccc1 [Example 53, 1,5-dideoxy-1,5-{[4-(dimethylphenylsilyl)butyl]imino}-D-glucitol]
[1]
  ED50 (concentration required to lower the syncytia counts by 50%): 12

## CC(C)(C)[Si](C)(C)/C=C\CN1C[C@H](O)[C@@H](O)[C@H](O)[C@H]1CO [Example 59, 1,5-Dideoxy-1,5-{[(Z)-3-(t-butyldimethylsilyl)-2-propenyl]-imino-}-D-glucitol]
[1]
  ED50 (concentration required to lower the syncytia counts by 50%): 190
